Tests used:
Assay type in all cases: cell-based, human
C81 cells [1] = test: Response of C81 transfectants to DHT and bicalutamide; settings: steroid reduced medium
Method: FIG. 4A-C. […] Equal numbers (5×10^4) of vector or EBP1 stably transfected cells were plated at Day 0 in complete media and viable cell numbers determined at the indicated times. Each point represents mean±S.E. of 3 wells. Representative of 3 experiments (Right panel). Colony growth in soft agar. C81 cells stably transfected with either pcDNA or EBP1 were plated in soft agar at the cell densities indicated and colony numbers assessed at Day 10. Each point represents mean±S.E. of 3 dishes. Data is representative of 3 experiments. B. (Left Panel) Response of EBP1 and vector transfected C81 cells to dihydrotestosterone (DHT). EBP1 and vector control C81 transfected cells and early passage LNCaP cells were plated in complete media at 5×10^3 cells/well in 96 well plates for one day. […] Total cell numbers were determined seven days later by MTT assays. […] Total cell numbers were assessed 7 days later by MTT assay. […] Total cell numbers were determined by MTT assays 5 days later. […]
Western Blot Analysis. […] For soft agar growth assays, increasing concentrations of cells (as indicated) were plated in 35 mm Petri dishes in 0.3% agar in complete media and colonies were counted after 10 days of incubation (21). […] Relative cell growth was determined using a Promega Proliferation Reagent (Promega, Madison Wis.) as per manufacturer's instructions with absorbance being read at […] using a Dynex plate reader. […]

LNCaP cells [2] = test: Growth response of LNCaP vector controls and EBP1 transfectants to DHT and bicalutamide; parameters: Emax: dose or concentration left out as unconfirmed
Method: Cell Growth Assays: To measure growth in complete media, cells (2×10^4) were seeded in triplicate in individual wells of 12-well tissue culture plates in RPMI-1640 with 10% FBS and cultured for the indicated number of days. Cells were trypsinized, stained with Trypan Blue (0.4%), and counted in a hemacytometer. For soft agar growth assays, increasing concentrations of cells (as indicated) were plated in 35 mm Petri dishes in complete media and 0.3% Difco Bacto Agar over an 0.5% agar layer. Colonies were counted after 10 days of incubation. For studies assessing the effect of dihydrotestosterone (DHT) on cell growth, cells (2×10^4) were plated in 12-well plates in complete media. After a 24-hour attachment period, the medium was replaced with steroid-free medium [phenol red-free RPMI 1640 and 5% charcoal-stripped FBS (Sigma)] for 48 hours. The final concentration of testosterone in the steroid-reduced media was less than 5 pM. After 48 hours of steroid depletion, cells were re-fed with fresh steroid-reduced medium with or without the indicated concentrations of DHT and/or bicalutamide (10 μM), and total cell numbers were assessed 7 days later.

C81 cells [3] = test: Sensitivity of C81 transfectants to chemotherapeutic drugs (MTT); settings: for sensitivity to Docetaxel: androgen deprived conditions; for decrease of growth: 20 nM, steroid reduced media
Method: FIG. 4A-C. […] Equal numbers (5×10^4) of vector or EBP1 stably transfected cells were plated at Day 0 in complete media and viable cell numbers determined at the indicated times. Each point represents mean±S.E. of 3 wells. Representative of 3 experiments (Right panel). Colony growth in soft agar. C81 cells stably transfected with either pcDNA or EBP1 were plated in soft agar at the cell densities indicated and colony numbers assessed at Day 10. Each point represents mean±S.E. of 3 dishes. Data is representative of 3 experiments. B. (Left Panel) Response of EBP1 and vector transfected C81 cells to dihydrotestosterone (DHT). EBP1 and vector control C81 transfected cells and early passage LNCaP cells were plated in complete media at 5×10^3 cells/well in 96 well plates for one day. The next day, cells were switched to steroid reduced medium for two days as described in the Materials and Methods. DHT was then added at the indicated concentrations. Cells were refed media every 3 days. Total cell numbers were determined seven days later by MTT assays. Each point represents mean±S.E. of 6 wells. Data is representative of two experiments. (Right Panel) Effect of Bicalutamide on DHT stimulated growth. Cells were plated as described in the Materials and Methods. After 2 days in steroid reduced medium, cells were fed with fresh steroid reduced medium with or without 10 μM bicalutamide (Casodex) in the presence or absence of 10 nM DHT. Total cell numbers were assessed 7 days later by MTT assay. Cells were refed media every 3 days. The data shown are mean±S.E. of six wells. […] C. […] C81 vector control or EBP1 transfectants were plated in 96 well plates in complete media and allowed to attach overnight. The cells were then placed in steroid reduced media for two days and then refed with steroid reduced media in the presence of the indicated concentrations of Docetaxel (left panel) or Mitoxantrone (right panic). Total cell numbers were determined by MTT assays 5 days later. Each point represents mean±S.E. of 6 wells. Data is representative of two experiments.
Western Blot Analysis. Western blot analysis was performed as previously described (19). The Ebp1 antibody was from Upstate (Lake Placid, N.Y.), the polyclonal antibody to actin from Sigma, the AKT and phospho AKT antibodies from Cell Signaling (Beverly, Mass.) and the AGR2 antibody was previously described (20) Cell Growth Assays Cell growth measurement in complete media was performed as described using a hemocytometer (21). For soft agar growth assays, increasing concentrations of cells (as indicated) were plated in 35 mm Petri dishes in 0.3% agar in complete media and colonies were counted after 10 days of incubation (21). For studies assessing the effect of DHT, HRG or chemotherapeutic agents on cell growth, cells (5×10^3) were plated in 96 well plates in complete media. After a 24-hour attachment period, the medium was replaced with steroid free medium [phenol red free RPMI 1640 and 5% charcoal stripped fetal bovine serum (Sigma)]. After 48 hours of steroid depletion, cells were refed with fresh steroid reduced medium with or without the indicated concentrations of DHT, bicalutamide (Casodex) (10 μM), HRG or the chemotherapeutic drugs at the concentrations indicated. Relative cell growth was determined using a Promega Proliferation Reagent (Promega, Madison Wis.) as per manufacturer's instructions with absorbance being read at […] using a Dynex plate reader. […]

LNCaP cells [4] = test: Response of A16 and C13 LNCaP cells to docetaxel (MTT)
Method: FIG. 7A-C. Suppression of EBP1 by shRNA promotes a hormone refractory phenotype A. Western blot analysis of Ebp1. Lysates of LNCaP cells stably transduced with a control lentivirus (A16) or an EBP1 targeted shRNA (13C) were collected and resolved by SDS-PAGE. Western blots were probed for endogenous EBP1 or ACTIN as indicated. B. Inhibition of EBP1 expression abrogates the ability of HRG to arrest growth (Left panel) Control and shRNA EBP1 targeted cells were plated in complete media at […] for one day. The next day, cells were switched to steroid reduced-media and HRG added at the indicated concentrations. Total cell numbers were determined seven days later by MTT assay. Each point represents mean±S.E. of 6 wells. Data is representative of three experiments. (Right Panel) AKT phosphorylation in EBP1 knock out cells Control (A16) or EBP 1 knock out cells (C13) were treated with HRG (20 ng/ml) for 15 mm and cell lysates assessed for the presence of phospho and total AKT as indicated. C. […] Sixteen hours later, luciferase activity was measured. […] Lysates of logarithmically growing A16 and C13 cells were resolved by SDS-PAGE and analyzed by Western blotting using antibodies to AGR2 and ACTIN as indicated. […] The viability of the cells was determined by MTT assays 5 days later. […]

MCF-7 cells = test: Growth of MCF-7 vector control and EBP1 transfectants in response to HRG or EGF
Method: FIG. 9A-D. Ectopic expression of EBP1 blocks HRG-induced proliferation. (A) MCF 7 cells were stably transfected with a control Flag vector (CMV) or a FLAG-EBP1 vector (EBP1). Cells lysates were analyzed by Western blotting for FLAG and actin levels as indicated (left panel) or EBP1 and actin (right panel). (B) MCF-7 vector control (Control) or EBP1 transfected cells (EBP1) were plated in 96-well plates in complete media overnight, and then switched to media with 2% FBS and the indicated concentrations of HRGb1 as described in Section 2. Growth was determined 4 days later using a Promega Proliferation Assay. Each point represents the mean±SD for six wells. Data shown are representative of three experiments. (C) AU565 vector control (Control) or EBP1 transfected cells (EBP1) were plated in 96-well plates in complete media overnight, and then switched to media with 2% FBS and the indicated concentrations of HRGβ1. Growth was determined 4 days later using a Promega Proliferation Assay. Each point represents the mean±SD for six wells and is representative of two experiments. […] Growth was determined 4 days later using a Promega Proliferation Assay. […]
2.5. […] Protein concentrations were measured using a detergent compatible kit (Bio-Rad). […] Images were quantified using IMAGE-J software (NIH). […]

In the case of `C[C@]12CCC(=O)C[C@@H]1CC[C@@H]1[C@@H]2CC[C@]2(C)[C@@H](O)CC[C@@H]12` [DHT, dihydrotestosterone], the “growth response to androgen (DHT)” value (C81 cells [1]; EBP1 transfected C81 cells) is reported as “responded to androgen in a similar manner as the original low passage LNCaP androgen sensitive cells”, the “growth response to androgen (DHT)” value (C81 cells [1]; vector control C81 cells) is reported as “unresponsive” and the Emax (LNCaP cells [2]; Homo sapiens, LNCaP, read-out: maximal stimulation of growth by DHT) is reported as 250%. The “stimulation of growth by DHT” value (LNCaP cells [2]; LNCaP EBP1 transfectants, 10^-9 M DHT) was 35%.

For `CC(=O)O[C@@]12CO[C@@H]1C[C@H](O)[C@@]1(C)C(=O)[C@H](O)C3=C(C)[C@@H](OC(=O)[C@H](O)[C@@H](NC(=O)OC(C)(C)C)c4ccccc4)C[C@@](O)([C@@H](OC(=O)c4ccccc4)[C@H]21)C3(C)C` [Docetaxel], the “sensitivity to Docetaxel” value (C81 cells [3]; C81 cells) was “relatively refractory”, the “sensitivity to Docetaxel” value (C81 cells [3]; EBP1 transfected C81 cells, 5-20 nM) was “significantly more sensitive” and the reduction in growth (LNCaP cells [4]; A16 control LNCaP cells, 5 nM) was 65%. It also gave an inhibition at 0.02 µM (LNCaP cells [4]; Homo sapiens, C13 EBP1 knock down LNCaP cells, 20 nM, read-out: maximum growth inhibition) of 15%.

With `O=C1c2c(O)ccc(O)c2C(=O)c2c(NCCNCCO)ccc(NCCNCCO)c21` [Mitoxantrone] the decrease of growth (C81 cells [3]; C81 EBP1 transfectants) was “approximately 80%”, the decrease of growth (C81 cells [3]; C81 vector controls) was 40% and the “concentration at which sensitivity plateaued” value (C81 cells [3]; both vector control and EBP1 transfectants) was 20 nM.

In the case of “EGF: growth factor from Sigma used to stimulate MCF-7 growth”, the “growth response to EGF” value (MCF-7 cells; MCF-7 EBP1 transfected cells) is reported as “growth stimulated by EGF to the same extent as control cells” and the “growth response to EGF” value (MCF-7 cells; MCF-7 control cells) is reported as “able to respond to EGF”.

— patent US7838495B2, “Compositions and methods of use of EPB1, and ErbB3 binding protein” (University of Maryland, Baltimore, priority 2007, dated 2010)
